Laboratory results taken from US12410195B2, “Pharmaceutical compositions comprising 4-((6bR,10aS)-3-methyl-2,3,6b,9,10,10a-hexahydro-1H-pyrido[3′,4′:4,5]pyrrolo[1,2,3-de]quinoxalin-8(7H)-yl)-1-(4-((6bR,10aS)-3-methyl-2,3,6b,9,10,10a-hexahydro-1H-pyrido[3′,4′:4,5]pyrrolo[1,2,3-de]quinoxalin-8(7H)-yl)phenyl)butan-1-one for treating conditions …” (INTRA-CELLULAR THERAPIES, INC., priority 2019, dated 2025).

Key:
SERT = SERT (Homo sapiens, UniProt P31645); test: Radioligand receptor binding, SERT (antagonist binding); settings: radioligand imipramine
Protocol: (§1) Receptor binding is determined for the Compounds of Example 1. The following literature procedures are used, each of which reference is incorporated herein by reference in their entireties: 5-HT2A: Bryant, H. U. et al. (1996), Life Sci., 15:1259-1268; D2: Hall, D. A. and Strange, P. G. (1997), Brit. J. Pharmacol., 121:731-736; D1: Zhou, Q. Y. et al. (1990), Nature, 347:76-80; SERT: Park, Y. M. et al. (1999), Anal. Biochem., 269:94-104; Mu opiate receptor: Wang, J. B. et al. (1994), FEBS Lett., 338:217-222.
(§2) The compound of Example 1 is tested at a concentration of […] in DMSO solution. Compound binding is calculated as the percent inhibition of the binding of a radioactively labeled ligand specific for each target. The control ligands are radiolabeled forms of SCH 23390 (for D1), 7-hydroxy-DPAT (for D2S), racemic DOI (for 5-HT2A and 5-HT2B), veratridine (for sodium channel site 2), protriptyline (for NET) and imipramine (for SERT).
(§3) In general, the results are expressed as a percent of control specific binding:
(§4) [formula] and as a percent inhibition of control specific binding:
(§5) [formula] obtained in the presence of the test compound (compound of Example 1).
(§6) Further pharmacology studies are conducted to determine IC50 values for receptor binding to the 5-HT2A receptor, D1 receptor, and SERT. For each study, the compound of Example 1 is tested at a range of concentrations and compound binding at each concentration is calculated as the percent inhibition of the binding of a radioactively labeled ligand specific for the target. The control ligands are radiolabeled forms of […], racemic DOI (for 5-HT2A), and imipramine (for SERT). The IC50 value is determined by non-linear regression analysis of the competition curve generated with mean replicate values using Hill Equation curve fitting:
(§7) [formula] wherein Y is specific binding, A is the left asymptote of the curve, D is the right asymptote of the curve, C is the compound concentration, and nH is the slope factor. Ki values are calculated using the Cheng Prusoff equation: […]

Sodium channel (site 2) = test: Radioligand binding, sodium channel site 2 (antagonist binding); settings: tested at 1.01.1M in DMSO solution; radioligand veratridine
Protocol: as §2, §3, §4, §5

D2S = D2S (Homo sapiens, UniProt P14416); test: Radioligand receptor binding, D2S (agonist binding); settings: radioligand 7-hydroxy-DPAT
Protocol: as §1, §2, §3, §4, §5, §6, §7

5-HT2A receptor = 5-HT2A receptor (Homo sapiens, UniProt P28223); test: Radioligand receptor binding, 5-HT2A (agonist binding); settings: radioligand racemic DOI
Protocol: as §1, §2, §3, §4, §5, §6, §7

D1 = D1 (Homo sapiens, UniProt P21728); test: Radioligand receptor binding, D1 (antagonist binding); set-up: dose or concentration left out as unconfirmed; settings: in DMSO solution; radioligand SCH 23390
Protocol: as §1, §2, §3, §4, §5

5-HT2B = 5-HT2B (Homo sapiens, UniProt P41595); test: Radioligand receptor binding, 5-HT2B (agonist binding); set-up: dose or concentration left out as unconfirmed; settings: in DMSO solution; radioligand racemic DOI
Protocol: as §1, §2, §3, §4, §5

NET = NET (Homo sapiens, UniProt P23975); test: Radioligand binding, NET (antagonist binding); set-up: dose or concentration left out as unconfirmed; settings: tested in DMSO solution; radioligand protriptyline
Protocol: as §2, §3, §4, §5

[1] = tested on: symptoms of emotional experience (negative symptoms of schizophrenia); test: Clinical studies in patients with acute exacerbated schizophrenia; format: in vivo, human; settings: once daily 60 mg P.O., up to 28 days, two clinical studies
Excerpt: Social avoidance can be a critical and debilitating symptom in patients suffering from anxiety disorders, especially social anxiety disorder, as well as in patients suffering from traumatic anxiety disorders. Social avoidance is often one of the key determinants of whether a person with a severe anxiety disorder is capable of maintaining familial relationships or employment relationships. […] Negative symptoms of schizophrenia can be divided into two categories: emotional experience (e.g., emotional withdrawal, passive social withdrawal, active social avoidance) and emotional expression (e.g., blunted effect, poor rapport, lack of spontaneity, and motor retardation). […] These are the symptoms that are most highly correlated with interpersonal functioning.

[2] = tested at 1.01.1M in DMSO solution

Chain of 5-HT2A receptor (P28223 whole entry): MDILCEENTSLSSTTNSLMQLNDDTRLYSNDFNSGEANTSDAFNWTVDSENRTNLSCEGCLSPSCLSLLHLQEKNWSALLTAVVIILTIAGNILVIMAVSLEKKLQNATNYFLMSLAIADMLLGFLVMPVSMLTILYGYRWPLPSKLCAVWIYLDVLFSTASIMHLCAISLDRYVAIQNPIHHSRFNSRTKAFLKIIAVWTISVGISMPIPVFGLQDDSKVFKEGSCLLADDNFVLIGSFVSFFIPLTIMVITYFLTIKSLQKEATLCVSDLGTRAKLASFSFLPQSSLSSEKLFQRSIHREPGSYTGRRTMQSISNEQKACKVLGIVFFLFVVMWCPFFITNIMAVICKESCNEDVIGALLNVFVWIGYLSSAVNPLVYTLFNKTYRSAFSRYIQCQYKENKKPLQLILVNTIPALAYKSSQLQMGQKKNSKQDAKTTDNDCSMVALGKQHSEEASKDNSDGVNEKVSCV
Chain of D2S (P14416 1-414 isoform P14416-2): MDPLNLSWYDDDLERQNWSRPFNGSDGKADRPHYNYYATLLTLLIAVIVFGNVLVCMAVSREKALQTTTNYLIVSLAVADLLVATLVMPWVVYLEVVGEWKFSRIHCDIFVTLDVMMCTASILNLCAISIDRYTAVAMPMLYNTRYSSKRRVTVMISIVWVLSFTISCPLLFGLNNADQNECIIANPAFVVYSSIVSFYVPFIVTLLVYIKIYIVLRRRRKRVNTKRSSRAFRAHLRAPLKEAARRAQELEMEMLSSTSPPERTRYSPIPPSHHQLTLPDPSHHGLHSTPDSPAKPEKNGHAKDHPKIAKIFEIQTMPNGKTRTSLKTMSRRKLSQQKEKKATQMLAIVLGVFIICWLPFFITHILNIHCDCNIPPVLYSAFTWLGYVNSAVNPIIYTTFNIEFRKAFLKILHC
Chain of SERT (P31645 whole entry): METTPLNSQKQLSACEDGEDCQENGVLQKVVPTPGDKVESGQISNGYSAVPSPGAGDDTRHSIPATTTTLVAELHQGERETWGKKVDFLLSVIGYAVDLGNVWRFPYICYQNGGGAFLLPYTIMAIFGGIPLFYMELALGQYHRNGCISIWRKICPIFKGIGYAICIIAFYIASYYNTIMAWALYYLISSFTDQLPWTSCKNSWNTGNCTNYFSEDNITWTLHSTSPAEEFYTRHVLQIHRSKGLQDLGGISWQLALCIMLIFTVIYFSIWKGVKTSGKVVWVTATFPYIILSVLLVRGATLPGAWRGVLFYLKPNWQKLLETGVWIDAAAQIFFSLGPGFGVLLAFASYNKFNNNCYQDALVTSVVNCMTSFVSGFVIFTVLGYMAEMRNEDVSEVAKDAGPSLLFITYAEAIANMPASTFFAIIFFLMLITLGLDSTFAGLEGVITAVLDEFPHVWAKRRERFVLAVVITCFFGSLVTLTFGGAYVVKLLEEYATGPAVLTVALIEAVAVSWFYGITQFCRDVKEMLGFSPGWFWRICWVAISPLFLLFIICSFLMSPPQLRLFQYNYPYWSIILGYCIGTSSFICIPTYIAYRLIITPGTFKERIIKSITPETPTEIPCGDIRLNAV
Chain of D1 (P21728 whole entry): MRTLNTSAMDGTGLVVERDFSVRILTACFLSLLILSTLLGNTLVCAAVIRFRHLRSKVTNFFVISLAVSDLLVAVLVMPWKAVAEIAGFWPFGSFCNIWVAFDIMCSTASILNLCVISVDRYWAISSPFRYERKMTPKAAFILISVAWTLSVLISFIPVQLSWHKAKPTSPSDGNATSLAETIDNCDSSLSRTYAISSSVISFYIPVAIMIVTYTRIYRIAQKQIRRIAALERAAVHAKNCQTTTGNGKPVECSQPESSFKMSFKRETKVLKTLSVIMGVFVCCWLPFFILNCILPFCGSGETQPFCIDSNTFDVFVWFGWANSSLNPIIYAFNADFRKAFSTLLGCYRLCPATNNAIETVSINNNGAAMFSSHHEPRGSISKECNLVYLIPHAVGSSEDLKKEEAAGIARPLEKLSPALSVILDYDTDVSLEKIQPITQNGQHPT
Chain of 5-HT2B (P41595 whole entry): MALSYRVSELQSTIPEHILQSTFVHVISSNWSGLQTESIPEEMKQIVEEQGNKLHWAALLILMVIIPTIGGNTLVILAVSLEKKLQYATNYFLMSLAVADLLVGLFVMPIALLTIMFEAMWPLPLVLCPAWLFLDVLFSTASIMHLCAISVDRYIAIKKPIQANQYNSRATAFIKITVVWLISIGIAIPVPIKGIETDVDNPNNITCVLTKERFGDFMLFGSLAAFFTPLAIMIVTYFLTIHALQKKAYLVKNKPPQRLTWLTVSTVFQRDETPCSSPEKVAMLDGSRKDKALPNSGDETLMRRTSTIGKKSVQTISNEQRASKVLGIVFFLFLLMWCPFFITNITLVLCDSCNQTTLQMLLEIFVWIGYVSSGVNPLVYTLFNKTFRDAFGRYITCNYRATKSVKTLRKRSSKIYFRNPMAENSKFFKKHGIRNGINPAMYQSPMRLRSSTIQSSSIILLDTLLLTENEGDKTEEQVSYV
Chain of NET (P23975 whole entry): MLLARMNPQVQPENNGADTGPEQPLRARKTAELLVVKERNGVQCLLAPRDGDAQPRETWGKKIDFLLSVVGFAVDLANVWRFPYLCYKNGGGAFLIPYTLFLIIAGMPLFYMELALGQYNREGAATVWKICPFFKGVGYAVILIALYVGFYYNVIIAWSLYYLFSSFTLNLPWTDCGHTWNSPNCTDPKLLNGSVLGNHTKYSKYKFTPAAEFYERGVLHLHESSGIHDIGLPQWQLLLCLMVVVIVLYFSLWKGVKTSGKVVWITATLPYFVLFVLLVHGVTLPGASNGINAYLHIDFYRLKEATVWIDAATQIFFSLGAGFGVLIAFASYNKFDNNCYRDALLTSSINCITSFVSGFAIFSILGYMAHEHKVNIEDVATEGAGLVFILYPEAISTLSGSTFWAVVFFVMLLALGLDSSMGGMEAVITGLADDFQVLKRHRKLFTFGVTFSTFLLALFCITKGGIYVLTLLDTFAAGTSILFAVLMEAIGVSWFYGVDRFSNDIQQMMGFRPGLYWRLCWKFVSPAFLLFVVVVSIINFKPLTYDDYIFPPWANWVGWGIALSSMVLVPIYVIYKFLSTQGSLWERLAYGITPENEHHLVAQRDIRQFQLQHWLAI

SMILES	Ki (SERT; Cheng Prusoff equation) [nM]	IC50 (SERT; Hill equation curve fitting) [nM]	% inhibition of control specific binding, SERT (antagonist binding) (SERT; [2]) [%]	% inhibition of control specific binding, Sodium channel (site 2 antagonist binding) (Sodium channel (site 2)) [%]	Ki (D2S; Cheng Prusoff equation) [nM]	IC50 (D2S; Hill equation curve fitting) [nM]	% inhibition of control specific binding, D2S (agonist binding) (D2S; [2]) [%]	Ki (5-HT2A receptor; Cheng Prusoff equation) [nM]	IC50 (5-HT2A receptor; Hill equation curve fitting) [nM]	% inhibition of control specific binding, 5-HT2A (agonist binding) (5-HT2A receptor; [2]) [%]	% inhibition of control specific binding, D1 (antagonist binding) (D1) [%]	% inhibition of control specific binding, 5-HT2B (agonist binding) (5-HT2B) [%]	% inhibition of control specific binding, NET (antagonist binding) (NET) [%]	symptoms of emotional experience compared to placebo [1]
CN1CCN2c3c(cccc31)[C@@H]1CN(CCCC(=O)c3ccc(N4CC[C@H]5[C@@H](C4)c4cccc6c4N5CCN6C)cc3)CC[C@@H]12 [Compound 1, 4-((6bR,10aS)-3-methyl-2,3,6b,9,10,10a-hexahydro-1H-pyrido[3′,4′: 4,5]pyrrolo[1,2,3-de]quinoxalin-8(7H)-yl)-1(4-((6bR,10aS)-3-methyl-2,3,6b,9,10,10a-hexahydro-1H-pyrido[3′,4′: 4,5]pyrrolo[1,2,3-de]quinoxalin-8(7H)-yl)phenyl)butan-1-one]	1.3	2.9	99.9	87.0	72	180	80.63	51	68	90.8	52.3	87.0	82.9	
CN1CCN2c3c(cccc31)[C@@H]1CN(CCCC(=O)c3ccc(F)cc3)CC[C@@H]12 [lumateperone, 4-((6bR,10aS)-3-methyl-2,3,6b,9,10,10a-hexahydro-1H-pyrido[3′,4′: 4,5]pyrrolo[1,2,3-de]quinoxalin-8(7H)-yl)-1-(4-fluorophenyl)-1-butanone]														significant and unexpected improvement
